# Laboratory results taken from patent US4342780A, “Method of depleting endogenous monoamines” (Merrell-Toraude et Cie, priority 1981, dated 1982).
# Experiments:
# [1] = biological target: T1, AADC (Sus scrofa, UniProt P80041); assay: In vitro AADC inhibition: time of 90% inactivation (14CO2 trapping, DL-[1-14C]-dopa substrate); type: biochemical, hog; design: key to RATING: ++++: The relative activities of the compounds are rated by the given number of "plus" signs; +++: The relative activities of the compounds are rated by the given number of "plus" signs; 0-+: The relative activities of the compounds are rated by the given number of "plus" signs; settings: for TIME OF 90% INACTIVATION: pH 7.4, 37° C.; for RATING: relative activity
# T1 sequence (P80041 1-486): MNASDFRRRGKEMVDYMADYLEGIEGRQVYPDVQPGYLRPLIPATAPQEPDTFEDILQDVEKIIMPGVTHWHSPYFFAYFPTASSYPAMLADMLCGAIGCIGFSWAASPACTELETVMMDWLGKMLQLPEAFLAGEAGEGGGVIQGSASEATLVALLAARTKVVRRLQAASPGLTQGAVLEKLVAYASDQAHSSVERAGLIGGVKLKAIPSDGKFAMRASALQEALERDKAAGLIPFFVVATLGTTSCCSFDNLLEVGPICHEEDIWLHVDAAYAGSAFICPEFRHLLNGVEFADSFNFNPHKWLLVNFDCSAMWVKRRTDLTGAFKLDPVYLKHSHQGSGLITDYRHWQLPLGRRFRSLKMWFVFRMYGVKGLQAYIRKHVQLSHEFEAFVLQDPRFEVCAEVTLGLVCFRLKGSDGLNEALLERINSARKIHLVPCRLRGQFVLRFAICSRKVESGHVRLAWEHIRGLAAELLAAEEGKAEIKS
# Protocol: AADC can be purified from hog kidney by the general method of J. Christenson et al. Archs. Biochem. Biophys., 141, 356 (1970) and G. Lancaster et al., Can. J. Biochem., 50, 791 (1972), and the specific activity of the enzyme is determined by the ^14 CO2 trapping method using DL-[1-^14 C]-dopa as the substrate (see Christenson et al.). One unit of activity is defined as the total amount of enzyme which produces 1 n mol of CO2 per minute, with DL-[1-^14 C]-dopa as substrate.
# To 100 μl of 50 mM-phosphate buffer pH 7.4 containing 100 mM-mercapto-ethanol are added 5 μl of an aqueous solution containing the test compound at the desired concentration and 50 μl of an aqueous solution containing 2 units of AADC. The mixture is incubated at 37° C. and 20 μl aliquots are removed at various times. The AADC activity remaining in each aliquot is measured by the CO2 trapping method of Christenson.
# The relative activities of the compounds are rated by the given number of "plus" signs.
# [2] = system: AADC; assay: Ex vivo AADC activity in organs of mice after repeated i.p. doses (Table II); design: species or system mice (Swiss Albino); settings: three days, 12 h after 6th dose, vs control
# Protocol: (§1) The test animals (e.g. mice or rats) are given the test compound in a suitable vehicle, either orally or by injection, each day over the period of time desired. The animals are kept on a constant time cycle, and body weights are measured daily. The animals are sacrificed by decapitation 12 to 24 hours after receiving the last dose of the test compound. Control animals receive the vehicle alone.
# (§2) Immediately after death, the organs (brain, heart, and kidney) are removed and homogenized either in 50 ml phosphate buffer pH 6.8 for AADC determination or in ice-cold 0.4 M HClO4 containing 0.05% (w/v) EDTA and 0.1% (w/v) sodium bisulfite for catecholamine determination. AADC activity is determined by the ^14 CO2 trapping method of J. Christenson, supra (see Example 14) using DL-[1-^14 C]-dopa as the substrate. Catecholamines are determined by centrifuging the homogenate, adding the supernatant to alumina buffered to pH 8.0-8.4 to adsorb the catecholamines, re-extracting the catecholamines from the alumina with 0.2 M HClO4 and determining the catecholamines in the extracts using known procedures, such as by reversed-phase ion-pair HPLC with electrochemical detection.
# (§3) Table II, shown below, sets forth the results obtained by testing particular compounds of Formula I in the above-described procedure in mice (Swiss Albino) after i.p. administration of the compound twice daily for three days: […]
# [3] = system: catecholamine content (norepinephrine, dopamine); assay: Catecholamine content in organs of mice after repeated i.p. doses (Table II); type: in vivo, mice (Swiss Albino); settings: three days, 12 h after 6th dose, vs control
# Protocol: as §1, §2, §3
# [4] = system: catecholamine content (norepinephrine, dopamine); assay: Catecholamine content in organs of rats after oral administration once daily for 15 days (Table III); type: in vivo, rats (Sprague-Dawley); settings: 24 h after 15th dose, vs control; for % CHANGE Brain Dopamine: * not significant
# Protocol: as §1, §2
# Table III gives the results obtained by testing particular compounds of Formula I in rats (Sprague-Dawley) after oral administration of the test compound once daily for 15 days. AADC activity was not determined.
# [5] = Deaths in mice after repeated i.p. doses (Table II footnotes); type: in vivo, mice (Swiss Albino); settings: 100 mg/kg i.p. twice daily, three days; number dead of animals
# Protocol: as §1, §3
# [6] = 10 mg/kg i.p. twice daily, * not significant
# [7] = 10 mg/kg i.p. twice daily, * not significant (-25*, -7*)
# [8] = 10 mg/kg i.p. twice daily, * not significant (-25*, -9*)
# [9] = 100 mg/kg i.p. twice daily, * not significant (-35*)
# [10] = 10 mg/kg oral once daily 15 days
# [11] = 20 mg/kg oral once daily 15 days
# [12] = 30 mg/kg oral once daily 15 days
TIME OF 90% INACTIVATION ([1]; CONC. 10 μM) [min],RATING ([1]; CONC. 10 μM),Structure (SMILES),% CHANGE AADC Brain ([2]; 10 mg/kg i.p. twice daily) [%],% CHANGE AADC Kidney ([2]; 10 mg/kg i.p. twice daily) [%],% CHANGE AADC Brain ([2]; 100 mg/kg i.p. twice daily) [%],% CHANGE AADC Kidney ([2]; 100 mg/kg i.p. twice daily) [%],"% CHANGE NOREPINEPHRINE Brain [3, 6] [%]","% CHANGE NOREPINEPHRINE Heart [3, 7] [%]","% CHANGE DOPAMINE Brain [3, 8] [%]",% CHANGE NOREPINEPHRINE Brain ([3]; 100 mg/kg i.p. twice daily) [%],% CHANGE NOREPINEPHRINE Heart ([3]; 100 mg/kg i.p. twice daily) [%],"% CHANGE DOPAMINE Brain [3, 9] [%]","% CHANGE Brain Norepinephrine [4, 10] [%]","% CHANGE Heart Norepinephrine [4, 10] [%]","% CHANGE Brain Dopamine [4, 10] [%]","% CHANGE Brain Norepinephrine [4, 11] [%]","% CHANGE Heart Norepinephrine [4, 11] [%]","% CHANGE Brain Dopamine [4, 11]","% CHANGE Brain Norepinephrine [4, 12] [%]","% CHANGE Heart Norepinephrine [4, 12] [%]",other results
1 to 2,++++,"NC(CF)(Cc1cccc(O)c1O)C(=O)O (stereo not shown) [2,3-diOH-phenyl, 2-Amino-2-fluoromethyl-3-(2,3-dihydroxyphenyl)propionic acid]",-73,-90,-99,-90,-33,-33,-25,-90,-90,-93,-11,-38,0,-17,-48,+3%,-27,-79,"% CHANGE Brain Dopamine [4, 12]: -10%"
3,++++,"NC(CF)(Cc1cc(O)ccc1O)C(=O)O (stereo not shown) [2,5-diOH-phenyl, 2-Amino-2-fluoromethyl-3-(2,5-dihydroxyphenyl)propionic acid]",-58,-78,-99,-87,0,-25,0,-90,-76,90,-16,-31,-1,-32,-38,-2%,-37,-53,"% CHANGE Brain Dopamine [4, 12]: -5%"
,,"Cc1cccc(CC(N)(CF)C(=O)O)c1O (stereo not shown) [2-OH3-methyl phenyl, 2-Amino-2-fluoromethyl-3-(2-hydroxy-3-methylphenyl)propionic acid]",-52,-84,-94,-98,-27,-41,-20,-47,-68,-24,,,,,,,,,TIME OF 90% INACTIVATION ([1]; CONC. 100 μM): 1 min; RATING ([1]; CONC. 100 μM): +++; dead [5]: 1/5
